# Measured values from ChEMBL document CHEMBL1201862, “PubChem BioAssay data set” (2004).
#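 Protocol summary: plate cells (96-well), add compound at 5 concentrations, incubate 48 h, interpolate endpoints linearly. Abbreviation: GI50, concentration required for 50% inhibition of growth.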 Calls of active or inactive are those of the source. Cut-off read from the data, not from the text of the source: active = GI50 up to about 1.1 µM and inactive = higher.
# Tests used:
# Assay in all cases: NCI-60 cell line screen, 48 h
# [1] = tested on: OVCAR-3
# [2] = tested on: RXF 393
# [3] = tested on: BT-549
# [4] = tested on: SK-MEL-5
# [5] = tested on: TK-10
# [6] = tested on: NCI-H23
# [7] = tested on: ACHN
# [8] = tested on: SK-MEL-28
# [9] = tested on: 786-0
# [10] = tested on: IGROV-1
# [11] = tested on: HL-60
# [12] = tested on: SK-MEL-2
# [13] = tested on: SNB-75
# [14] = tested on: NCI-H460
# [15] = tested on: CAKI-1
# [16] = tested on: SW-620
# [17] = tested on: SNB-19
# [18] = tested on: EKVX
# [19] = tested on: HOP-62
# [20] = tested on: HOP-92
# [21] = tested on: HT-29
# [22] = tested on: SK-OV-3
# [23] = tested on: SN12C
# [24] = tested on: NCI-H226
# [25] = tested on: MDA-MB-435
# [26] = tested on: MDA-MB-231
# [27] = tested on: OVCAR-8
# [28] = tested on: SF-295
# [29] = tested on: K562
# [30] = tested on: KM12
# [31] = tested on: UACC-257
# [32] = tested on: T47D
# [33] = tested on: HCT-116
# [34] = tested on: RPMI-8226
# [35] = tested on: OVCAR-4
# [36] = tested on: NCI-H522
# [37] = tested on: MDA-N
# [38] = tested on: NCI/ADR-RES
# [39] = tested on: LOX IMVI
# [40] = tested on: SF-268
# [41] = tested on: HCC 2998
# [42] = tested on: MCF7
# [43] = tested on: HCT-15
# [44] = tested on: UO-31
# [45] = tested on: OVCAR-5
# [46] = tested on: Malme-3M
# [47] = tested on: UACC-62
# [48] = tested on: PC-3
# [49] = tested on: U-251
# [50] = tested on: Hs-578T
# [51] = tested on: A549
# [52] = tested on: SF-539
# [53] = tested on: A498
smiles,measurement,setting,value
COC(=O)C(C(=O)C(=O)NC1Nc2ccc(C)cc2S1)c1nc2ccc(Cl)cc2nc1O (stereo not drawn),GI50,[1],> 100 µM (inactive)
same,GI50,[2],> 100 µM (inactive)
same,GI50,[3],> 100 µM (inactive)
same,GI50,[4],> 100 µM (inactive)
same,GI50,[5],> 100 µM (inactive)
same,GI50,[6],> 100 µM (inactive)
same,GI50,[7],> 100 µM (inactive)
same,GI50,[8],> 100 µM (inactive)
same,GI50,[9],> 100 µM (inactive)
same,GI50,[10],40.6 µM (inactive)
same,GI50,[11],> 100 µM (inactive)
same,GI50,[12],> 100 µM (inactive)
same,GI50,[13],> 100 µM (inactive)
same,GI50,[14],> 100 µM (inactive)
same,GI50,[15],> 100 µM (inactive)
same,GI50,[16],> 100 µM (inactive)
same,GI50,[17],96.4 µM (inactive)
same,GI50,[18],60.1 µM (inactive)
same,GI50,[19],> 100 µM (inactive)
same,GI50,[20],82.4 µM (inactive)
same,GI50,[21],> 100 µM (inactive)
same,GI50,[22],> 100 µM (inactive)
same,GI50,[23],> 100 µM (inactive)
same,GI50,[24],> 100 µM (inactive)
same,GI50,[25],> 100 µM (inactive)
same,GI50,[26],> 100 µM (inactive)
same,GI50,[27],> 100 µM (inactive)
same,GI50,[28],> 100 µM (inactive)
same,GI50,[29],> 100 µM (inactive)
same,GI50,[30],> 100 µM (inactive)
same,GI50,[31],> 100 µM (inactive)
same,GI50,[32],> 100 µM (inactive)
same,GI50,[33],> 100 µM (inactive)
same,GI50,[34],> 100 µM (inactive)
same,GI50,[35],74 µM (inactive)
same,GI50,[36],> 100 µM (inactive)
same,GI50,[37],> 100 µM (inactive)
same,GI50,[38],> 100 µM (inactive)
same,GI50,[39],> 100 µM (inactive)
same,GI50,[40],> 100 µM (inactive)
same,GI50,[41],> 100 µM (inactive)
same,GI50,[42],> 100 µM (inactive)
same,GI50,[43],> 100 µM
same,GI50,[44],> 100 µM (inactive)
same,GI50,[45],> 100 µM (inactive)
same,GI50,[46],> 100 µM (inactive)
same,GI50,[47],> 100 µM (inactive)
same,GI50,[48],> 100 µM (inactive)
same,GI50,[49],> 100 µM (inactive)
same,GI50,[50],> 100 µM (inactive)
same,GI50,[51],> 100 µM (inactive)
same,GI50,[52],> 100 µM (inactive)
same,GI50,[53],> 100 µM (inactive)
